Reference: patent US20240358683A1, “COMPOSITION FOR PREVENTING OR TREATING NEURODEGENERATIVE DISEASE COMPRISING COMPOUND INDUCING EXPRESSION OF ANTI-AGING GENE KLOTHO” (KLOTHO SCIENCES, priority 2021, published 2024)

What was measured:
[1] = test system: human klotho gene; assay: Luciferase expression experiment, human klotho promoter reporter (1.7 kbp / 240 bp) in RPTEC cells; type: cell-based; details: 5 μM, 24 hours, compared among Comparative Examples 1 to 4, FIG. 1
Procedure: (§1) In order to evaluate whether the klotho gene was expressed by the evaluation of luciferase activity, human renal proximal tubule epithelial cells (RPTECs) (ATCC CRL-4031), which are epithelial cells of the proximal tubule of the human kidneys, were purchased from Lonza, USA and used.
(§2) For culturing, a Renal Epithelial Growth Medium (REGM™) Bullet kit, also manufactured by the same Lonza company, was used, and the cells were cultured under conditions of 37° C. and 5% CO2. As a plasmid for luciferase expression, a plasmid in which the promoter site of a human KL (klotho) gene was disposed to regulate the expression of a firefly luciferase gene was used.
The plasmid was incorporated into cells using an X-treme GENE transfection reagent from Roche. The activity of luciferase expressed in cells was measured using a Dual-Luciferase reporter assay system manufactured by Promega. After the cultured cells were treated with each compound at an indicated concentration for 24 hours, the activity of luciferase was measured. It is indirectly shown that the expression of the klotho gene may be increased when the activity of luciferase is high. […]

[2] = test system: human klotho gene; assay: Luciferase expression experiment, reporter gene pHKP-luc (promoter up to -2.1 kb upstream of the human klotho gene) in RPTECs; type: cell-based
Procedure: as §1, §2
The plasmid was incorporated into cells using an X-treme GENE transfection reagent from Roche. The activity of luciferase expressed in cells was measured using a Dual-Luciferase reporter assay system manufactured by Promega. After the cultured cells were treated with each compound at an indicated concentration for 24 hours, the activity of luciferase was measured. It is indirectly shown that the expression of the klotho gene may be increased when the activity of luciferase is high.
The results of confirming the expression of a reporter gene by treating RPTECs, which are epithelial cells of the proximal tubule of the human kidneys, with Examples 1 to 6 at concentrations of 0.5, 1 and 5 μM and Comparative Example 1 at a concentration of 5 μM and using a reporter gene (pHKP-luc) including a promoter included up to −2.1 kb upstream of the human klotho gene are illustrated in FIGS. 2 and 3.

[3] = test system: klotho (KL) gene; assay: Quantitative evaluation of klotho (KL) gene expression level using real-time PCR in RPTEC cells; type: cell-based, human; details: RPTEC cells treated for 6 hours; vs Comparative Example 1; FIG. 4
Procedure: For RNA extraction from RPTEC cells, which are epithelial cells of the proximal tubule of the human kidneys, treated with the compounds of Comparative Example 1 and Examples 1 and 2 for 6 hours, an RNeasy kit from Qiagen Inc. was used. The results of preparing cDNA from extracted RNA using a Superscript II kit from Thermo Fisher Scientific, Inc. and performing the quantitative evaluation using Taqman Gene Expression assays from Applied Biosystems as a klotho (KL) gene-specific kit are illustrated in FIG. 4.

[4] = test system: human kidney-2 (HK2) cells; assay: Toxicity test, EZ-Cytox kit; type: cell-based; details: 12.5 μM or 25 μM, 24 hours, FIG. 6
Procedure: Cultured human kidney-2 (HK2) cells were treated with Comparative Example 1, Example 2 and Examples 9 to 10 at a concentration of 25 μM or 12.5 μM, and after 24 hours, cytotoxicity was measured using an EZ-Cytox kit.

[5] = test system: NeuN; assay: NeuN immunohistochemistry of brain tissue sections, 5×FAD cognitive dysfunction animal model; type: in vivo; details: 5×FAD mice, 10 mg/kg p.o. daily, FIG. 10
Excerpt: (§3) In this experiment, 5×FAD mice aged 4 months or 6 months were used. 5×FAD mice are Alzheimer's mice genetically modified to overproduce beta amyloid (Aβ, β amyloid) and were provided by the KIST Research Animal Resource Center, which maintains and sells them. Normal control (WT) mice, which are not genetically modified to overproduce β-amyloid (Aβ), were provided by the KIST Research Animal Resource Center. The animals were acclimatized for 1 week before the experiments. Mice were kept on an ad libitum diet in an animal room maintained at 22±2° C. and 40-60% humidity, and the light and dark cycles were controlled at 12-hour intervals. All animal experiments were performed in accordance with the animal care and use regulations of the Institutional Animal Care and Use Committee of the Korea Advanced Institute of Science and Technology (KIST).
(§4) Animal model mice and normal control mice received vehicle (5% DMSO+65% PEG400+30% Saline) or vehicle with KS1 (Example 10) dissolved in it orally (p.o.) at a concentration of 10 mg/kg daily for 4 or 12 weeks. Three mice were used per experimental group. The body weight was measured weekly during the treatment period, and after the end of the treatment, the cognitive function was tested and sacrificed, and the organs were harvested to confirm the changes through biochemical methods.
(§5) All data were expressed as mean (S.E.M), and differences between groups were determined using one-way ANOVA and Tukey's multiple comparisons test. When it was determined that there was a statistical difference, p<0.05 *, p<0.01 **, p<0.001 *** were indicated.
The fluorescence level of NeuN measured in each region (CTX: neocortex, CA: […], DG: dentate gyrus) of brain tissue sections isolated from control (CTL) and KS1 1-month and 3-month treatment groups of 5×FAD cognitive dysfunction animal model and normal control animal model was investigated by Immunohistochemistry.

[6] = test system: klotho (KL) gene; assay: Quantitative evaluation of klotho (KL) gene expression level using general PCR in RPTEC cells; type: cell-based, human; details: 2.5 μM, 6 hours, FIG. 5
Procedure: After RPTEC cells, which are epithelial cells of the proximal tubule of the human kidneys, were each treated with the compounds of Examples 7 to 10 at 2.5 μM for 6 hours, RNA was extracted from the cells, and cDNA was prepared from the extracted RNA using a Superscript II kit from Thermo Fisher Scientific, Inc., and then general PCR was performed.
Information on the primers used in the experiment is as follows. • KL-F […] (SEQ ID NO: 1) • KL-R […] (SEQ ID NO: 2) • GAPDH-F […] (SEQ ID NO: 3) • GAPDH-R […] (SEQ ID NO: 4)
The DNA amplified by PCR was confirmed by staining with ethidium bromide after electrophoresis on an agarose gel, and the amounts of DNA in the band were quantitatively compared using the SPEedyQuant program, and are illustrated in FIG. 5.

[7] = test system: HT22 cells; assay: Neuronal senescence inhibition, senescence β-galactosidase staining; type: cell-based, mouse; details: FIG. 7
Procedure: (§6) HT22 cells, neuronal cells derived from mouse hippocampus, were cultured in DMEM culture medium supplemented with 10% FBS. Cell cultures were incubated in a 37° C. incubator at 5% CO2, and when the cells grew to saturate the surface of the culture dish by 80%, they were treated with 0.05% trypsin and transferred to new culture dishes for passage. The compound was added to the medium at each passage to maintain a final concentration of 2.5 μM. Cells with only DMSO as solvent were used as a negative control, and cells from three passages (#5) were used as a non-aging control. All senescent cells were cultured in 20 passages (#25).
To check the degree of senescence of the cells, “Senescence β-galactosidase staining kit” from Cell Signaling Technology was used. The staining solution was added to the cells on the day of the experiment and the stained cells were checked 8 hours later. The number of stained cells was determined and expressed as a percentage of the total number of cells observed under a 200× microscope, and the number of stained cells in three different locations per sample was counted and averaged. As the expression of β-galactosidase enzyme increases as the aging of cells progresses, stained cells can be judged as more aged cells than unstained cells.

[8] = test system: 5×FAD mice; assay: Novel object recognition test (NOR) in 5×FAD mice; type: in vivo; details: 10 mg/kg p.o. daily, compared to vehicle, FIG. 11
Excerpt: as §3, with “All animal experiments were performed in accordance with the animal care and use regulations of the Institutional Animal Care and Use Committee of the Korea Advanced Institute of Science and Technology (KIST).” left out
Animal model mice and normal control mice received vehicle (5% DMSO+65% PEG400+30% Saline) or vehicle with KS1 (Example 10) dissolved in it orally (p.o.) at a concentration of 10 mg/kg daily for 4 or 12 weeks. […] The body weight was measured weekly during the treatment period, and after the end of the treatment, the cognitive function was tested and sacrificed, and the organs were harvested to confirm the changes through biochemical methods.
The novel object recognition test is a modification of the existing method and consists of an adaptation period, an exploration period, and a novel object recognition period. […] The next day, one of the objects was replaced with a new object and the animal's movement was measured for 10 minutes. […]

[9] = test system: 5×FAD mice; assay: Passive avoidance experiment in 5×FAD mice; type: in vivo; details: 10 mg/kg p.o. daily for 4 weeks, compared to normal mice, FIG. 12
Excerpt: as §3, with “All animal experiments were performed in accordance with the animal care and use regulations of the Institutional Animal Care and Use Committee of the Korea Advanced Institute of Science and Technology (KIST).” left out
Animal model mice and normal control mice received vehicle (5% DMSO+65% PEG400+30% Saline) or vehicle with KS1 (Example 10) dissolved in it orally (p.o.) at a concentration of 10 mg/kg daily for 4 or 12 weeks. […] The body weight was measured weekly during the treatment period, and after the end of the treatment, the cognitive function was tested and sacrificed, and the organs were harvested to confirm the changes through biochemical methods. […]
as §5

[10] = test system: phospho-Tau; assay: phospho-Tau immunohistochemistry of brain tissue sections, 5×FAD cognitive dysfunction animal model; type: in vivo; details: 5×FAD mice, 10 mg/kg p.o. daily, FIG. 9
Excerpt: as §3, §4, §5
The fluorescence levels of phospho-Tau measured in each region (HPC: hippocampus; CTX: neocortex) of brain tissue sections isolated from control (CTL) and KS1 1-month and 3-month treatment groups of 5×FAD cognitive dysfunction animal model and normal control animal model were investigated by Immunohistochemistry.

[11] = test system: HT22 cells; assay: Neuronal inflammation inhibition, LPS-induced cytotoxicity (Cyto X cell viability assay); type: cell-based, mouse; details: 2.5 μM, LPS 1 μg/mL 24 hours, FIG. 8
Procedure: as §6
Cells were seeded at 10,000 cells in 160 μl of medium into each well of a 96-well plate and incubated in a 37° C. incubator at 5% CO^2 for 24 h. The compounds were added to the culture medium to a final concentration of 2.5 μM. After incubation, LPS (lipopolysaccharide) from Cell application was added at a concentration of 1 μg/mL and incubated for another 24 hours. The Cyto X cell viability assay kit from the same company was then added 20 μl to each well and incubated for 1 to 4 hours. The color change was then measured at 450 nm.

[12] = RPTECs, Examples at 0.5, 1 and 5 μM vs Comparative Example 1 at 5 μM, FIG. 2

O=C(Nc1ccccc1Cl)c1c[nH]c2ccccc12 [Comparative Example 1, N-(2-chlorophenyl)-1H-indole-3-carboxamide]
luciferase activity [1]: the highest

O=C(Nc1nc2ccccc2o1)c1ccc([N+](=O)[O-])cc1Cl [Example 1, N-(benzo[d]oxazol-2-yl)-2-chloro-4-nitrobenzamide]
expression of the reporter gene (pHKP-luc) [2, 12]: level similar to that of Comparative Example 1

Cc1ccc2oc(Nc3ccc(Cl)c(Cl)c3)nc2c1 [Example 2]
klotho (KL) gene mRNA expression level, real-time PCR [3]: level similar to that of Comparative Example 1
expression of the reporter gene (pHKP-luc) ([2]; RPTEC cells, 5 μM, vs Comparative Example 1, FIG. 3): level similar to that of Comparative Example 1
expression of the reporter gene (pHKP-luc) [2, 12]: level similar to that of Comparative Example 1

Fc1ccc(Nc2nc3ccccc3o2)cc1F [Example 10, N-(3,4-difluorophenyl)benzo[d]oxazol-2-amine]
cytotoxicity [4]: the least toxicity
improvement of toxicity compared to Comparative Example 1 [4]: ≥ 20%
expression of NeuN neuromarker protein ([5]; compared to vehicle): increased to a statistically significant level
NeuN, Cornu Ammonis (CA) [5]: an increase in NeuN was confirmed
NeuN, dentate gyrus (DG) [5]: no significant increase
NeuN, primary somatosensory cortex (CTX) [5]: no significant increase
expression level of the klotho (KL) gene relative to Comparative Example 1 [6]: about 10 times
β-galactosidase stained cells as a percentage of the total number of cells ([7]; HT22 cells cultured for 20 passages, 2.5 μM in the medium, DMSO control about 50%): 40%
decrease in the degree of senescence compared to cells grown in medium containing DMSO ([7]; HT22 cells, 20 passages, 2.5 μM): 20%
object detection ability (NOR) [8]: statistically significant increase in object detection ability
spatial learning and memory performance, passive avoidance test [9]: maintained a similar level of performance to normal mice
expression of phospho-Tau protein, hippocampus (HPC) region ([10]; 1-month and 3-month treatment): reduced expression of the proteins was seen in only the 3-month treated mice
expression of phospho-Tau protein, primary somatosensory cortex (CTX) region ([10]; 1-month and 3-month treatment): reduced expression of the proteins was seen in both 1- and 3-month treated mice
expression of phospho-Tau protein ([10]; compared to vehicle): reduced to a statistically significant level
percentage of cells killed by LPS treatment ([11]; HT22 cells cultured for 5 passages, DMSO control 50%): 45%
percentage of cells killed by LPS treatment ([11]; HT22 cells cultured for 20 passages, DMSO control about 80%): 60%
